Measured values as given in paper PMC7782499, “Progerinin, an optimized progerin-lamin A binding inhibitor, ameliorates premature senescence phenotypes of Hutchinson-Gilford progeria syndrome” (Communications Biology, 2021).
Where “and” joins values, the source holds several entries; their conditions need not be identical. Equal values may be shown once.

Tested on: Lmna G609G/+ mouse
Test: Body weight of Lmna G609G/+ mice
Format: in vivo
Conditions: oral administration, relative body weight; for Lmna G609G/+ body weight, Ave: group average; for Lmna G609G/+ body weight: individual mouse
Source text: Fig. 3 In vivo favorable effect of SLC-D011. A Gross morphology of Lmna^G609G/G609G mice (10 weeks old) was ameliorated after injection with SLC-D011. At the same age, the experimental group (D011) of mice were larger than vehicle-injected control (Con) subjects regardless of gender. B, C SLC-D011 increases body weight B and extends life span C of Lmna^G609G/G609G progeria model mouse (Con: n = 8; SLC-D011: n = 8). Compared with 14.8 weeks of average (ave) life span with maximum (max) life span of 15.5 weeks, 20 mg/kg of intraperitoneal (i.p) injection (twice a week) of SLC-D011 could extend the life span upto 19 weeks (max = 21 weeks). Lmna^G609G/G609G mice were injected with SLC-D011 from age of 5-week old, *p < 0.05. D Gross morphology of SLC-D011 injected Lmna^G609G/+ mouse. […] E SLC-D011 increases body weights of Lmna^G609G/+ mice (Con: n = 10; SLC-D011: n = 11), *p < 0.05. F Favorable effect of SLC-D011 on life span of Lmna^G609G/+ mice. Compared with vehicle-injected control group (ave = 46.7 weeks and max = 48 weeks), SLC-D011 treatment obviously extended the average life span to 63 weeks (max = 64 weeks). The injection was started from 32 weeks old, **p < 0.001. “Con” means vehicle (a solvent composed of DMSO and PBS)-injected mouse group. TEXT PRINTED IN THE PICTURE: (C) D011: Kaplan-Meier survival curve in Lmna^G609G/G609G: Ave=19; Kaplan-Meier survival curve in Lmna^G609G/G609G: Max=21 | (F) D011: Kaplan-Meier survival curve in Lmna^G609G/+: Ave=63; Kaplan-Meier survival curve in Lmna^G609G/+: Max=64 DOUBTS OF THE COPYIST ABOUT THIS PICTURE: Panels C and F: the Ave/Max labels are not printed with a group name. They are assigned to D011 (solid curve) or Con (dashed curve) only by their position beside the curves. / Panel C Ave=14.8, Max=15.5 and panel F Ave=46.7, Max=48 stand beside the dashed Con curve. They are left out because Con is the control group, not a substance. / No unit is printed with the Ave/Max values. Only the axis reads Age (weeks).
Animal experiments were performed in a facility certified by the Association for Assessment and Accreditation of Laboratory Animal Care in compliance with animal policies approved by Pusan National University. The mouse work was performed under the study protocol PNU-2019-2181, as approved by the Institutional Animal Care and Use Committee. Lmna^G609G/609G mice were generated by timed mating of heterozygous Lmna^G609G/+ provided by Carlos López-Otín (Universidad de Oviedo, Asturias, Oviedo, Spain). SLC-D011 was mixed with dimethyl sulfoxide (DMSO) and phosphate-buffered saline (PBS). It was then intraperitoneally injected into mice (20 mg/kg twice per week from 5-week-old). SLC-D011 and lonafarnib were orally administrated to mice daily at a concentration of 10 mg/ml in monoolein-based solution. Lonafarnib was generously provided by Merck, the Progeria Research Foundation (PRF) and the PRF Lonafarnib Pre-clinical Drug Supply Program. Control mice were treated with monoolein-based solution alone in the same way. Lmna^G609G/609G mice were treated with clear chemical solution throughout the life span, starting from 5 weeks of age. Lmna^G609G/+ mice were treated via intraperitoneal and oral administrations, starting from 32 weeks of age.
Fig. S10. Or al administration of SLC-D011 suppresses premature aging features of LmnaG609G/+ mi c e . A.
Gross morphology of SLC-D011 treated Lmna G609G/+ mice at 36 weeks old. B. Oral administration of SLC-
D011 increases body weight s of LmnaG609G/+ mi c e (untreated: n=11; SLC-D011: n=12), * p<0.05. C. […]
intensity of H3K9me3 levels in lung, liver, and kidney tissues of age-matched Lmn a +/+ mouse, untreated
LamnG609G/+ mouse and two progerinin- treated LmnaG609G/+ mice (n = 2 independent experiments; one
Student’s t -test), **p < 0.001,*p< 0.05, N.S: not significant .AU, arbitrary units.
Fig. S12. […] A. SLC-D011, compar ed to lonafarnib, reduces […]

Structure (SMILES): NC(=O)N1CCC(CC(=O)N2CCC([C@H]3c4ncc(Br)cc4CCc4cc(Cl)cc(Br)c43)CC2)CC1 [lonafarnib, reference compound]
- Lmna G609G/+ body weight, Ave (week 36): 1
- Lmna G609G/+ body weight (week 36): 1
- Lmna G609G/+ body weight, Ave (week 38): 0.9406
- Lmna G609G/+ body weight (week 38): 0.9091 and 0.9 and 0.96 and 0.95 and 0.913 and 0.9565
- Lmna G609G/+ body weight, Ave (week 40): 0.9202
- Lmna G609G/+ body weight (week 40): 0.8636 and 0.85 and 0.92 and 0.9 and 0.96 and 0.913 and 0.9565 and 0.95 and 0.9091
- Lmna G609G/+ body weight, Ave (week 42): 0.88
- Lmna G609G/+ body weight (week 42): 0.8636 and 0.8 and 0.84 and 0.85 and 0.92 and 0.913 and 0.88 and 0.9091
- Lmna G609G/+ body weight, Ave (week 44): 0.8157
- Lmna G609G/+ body weight (week 44): 0.7727 and 0.7 and 0.8 and 0.88 and 0.7273 and 0.8182 and 0.85
- Lmna G609G/+ body weight, Ave (week 46): 0.7411
- Lmna G609G/+ body weight (week 46): 0.7273 and 0.65 and 0.72 and 0.75 and 0.76 and 0.7 and 0.8182 and 0.8
- Lmna G609G/+ body weight, Ave (week 48): 0.6808
- Lmna G609G/+ body weight (week 48): 0.6818 and 0.6 and 0.64 and 0.75 and 0.68 and 0.7 and 0.7273 and 0.72
- Lmna G609G/+ body weight, Ave (week 50): 0.6132
- Lmna G609G/+ body weight (week 50): 0.5909 and 0.55 and 0.6 and 0.7 and 0.64 and 0.5 and 0.6957 and 0.65 and 0.6818
- Lmna G609G/+ body weight, Ave (week 52): 0.4605
- Lmna G609G/+ body weight (week 52): 0.4545 and 0 and 0.4 and 0.55 and 0.48 and 0.5217 and 0.6957 and 0.5 and 0.44
- Lmna G609G/+ body weight, Ave (week 54): 0.1559
- Lmna G609G/+ body weight (week 54): 0.4545 and 0 and 0.44 and 0.5217
